Common to all, as to format: biochemical
For one assay, the target named is T1, recombinant PRL-1 (Homo sapiens, UniProt Q93096).
T1 construct: 6xHis (N, cleaved yes); made in house; host or cells: E. coli One Shot BL21 Star
T1 sequence (Q93096 1-173): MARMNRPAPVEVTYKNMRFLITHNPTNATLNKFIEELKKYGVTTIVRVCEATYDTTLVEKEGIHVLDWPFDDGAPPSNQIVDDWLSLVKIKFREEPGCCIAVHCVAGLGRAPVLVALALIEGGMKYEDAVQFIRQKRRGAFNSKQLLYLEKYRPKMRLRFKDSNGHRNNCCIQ
Nature of the assay: In vitro phosphatase assay (DiFMUP hydrolysis), PRL-1. The settings on record: for IC50: DiFMUP at KM, read-out: Calculated IC50, PRL-1 phosphatase activity.

A further assay deals with T2, recombinant PRL-3 (Homo sapiens, UniProt O75365).
T2 construct: 6xHis (N, cleaved yes); made in house; host or cells: E. coli One Shot BL21 Star
Nature of the assay: In vitro phosphatase assay (DiFMUP hydrolysis), PRL-3. The settings on record: for IC50: DiFMUP at KM, read-out: Calculated IC50, PRL-3 phosphatase activity.

For a further assay, the target named is T3, recombinant PRL-2 (Homo sapiens, UniProt Q12974).
T3 construct: 6xHis (N, cleaved yes); made in house; host or cells: E. coli One Shot BL21 Star
T3 sequence (Q12974 1-167): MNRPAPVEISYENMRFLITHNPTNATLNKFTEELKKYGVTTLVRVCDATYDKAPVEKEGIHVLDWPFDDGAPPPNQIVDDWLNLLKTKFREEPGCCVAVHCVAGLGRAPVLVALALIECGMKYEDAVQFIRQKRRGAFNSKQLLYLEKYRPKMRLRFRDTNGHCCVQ
Nature of the assay: In vitro phosphatase assay (DiFMUP hydrolysis), PRL-2.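 As to all read-outs here: PRL-2 activity read as DiFMUP hydrolysis after 20 min at room temperature with drug, enzyme first pre-reduced at 4 °C for 20 min.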 The conditions noted are these: for IC50: DiFMUP at KM, read-out: Calculated IC50, PRL-2 phosphatase activity.

The mark [1] stands for this setting: FDA-approved drug screen, compared to DMSO.
Where [2] appears, read: FDA-approved drug screen, compared to DMSO, listed as Eltrombopag.

What is called IC50 is the concentration at which inhibition is half-maximal.

Where a name gives a salt, the structure may show the parent alone. Read-outs that look alike come from different tables or passages of the source.

T2 sequence (O75365 whole entry): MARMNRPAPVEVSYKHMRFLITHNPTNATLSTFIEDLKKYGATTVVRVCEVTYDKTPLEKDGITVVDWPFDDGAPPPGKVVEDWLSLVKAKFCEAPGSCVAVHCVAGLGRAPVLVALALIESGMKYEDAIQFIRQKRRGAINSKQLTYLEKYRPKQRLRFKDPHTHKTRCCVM

Take `Clc1ccc(COC(Cn2ccnc2)c2ccc(Cl)cc2Cl)cc1` (stereo not drawn) [Econazole nitrate]: at recombinant PRL-1 (setting [1]), the “% Phosphatase Activity (compared to DMSO) PRL-1” value is reported as 107%. Besides, the “% Phosphatase Activity (compared to DMSO) PRL-3” value at recombinant PRL-3 (setting [1]) is 93%. Further, the “% Phosphatase Activity (compared to DMSO) PRL-2” value on recombinant PRL-2 (setting [1]) was 103%.
The like results for `CC1=NN(c2ccccc2)C(=O)C1` [Edaravone] were, in that order, 90%, 72% and 82%.
As for `CN1CCc2nc(C(=O)N[C@@H]3C[C@@H](C(=O)N(C)C)CC[C@@H]3NC(=O)C(=O)Nc3ccc(Cl)cn3)sc2C1` [Edoxaban], the “% Phosphatase Activity (compared to DMSO) PRL-1” value on recombinant PRL-1 (setting [1]) is recorded as 110%. The “% Phosphatase Activity (compared to DMSO) PRL-3” value on recombinant PRL-3 (setting [1]) is reported as 106%. The “% Phosphatase Activity (compared to DMSO) PRL-2” value at recombinant PRL-2 (setting [1]) is reported as 99%.
The corresponding values for `O=C1Nc2ccc(Cl)cc2[C@@](C#CC2CC2)(C(F)(F)F)O1` [Efavirenz] are 87%, 97% and 72%.
For the compound `Cl.NCCCC(N)(C(=O)O)C(F)F.O` (stereo not drawn) [Eflornithine hydrochloride hydrate], on recombinant PRL-1 (setting [1]), the “% Phosphatase Activity (compared to DMSO) PRL-1” value was 91%. In addition, at recombinant PRL-3 (setting [1]), the “% Phosphatase Activity (compared to DMSO) PRL-3” value is given as 103%. In addition, the “% Phosphatase Activity (compared to DMSO) PRL-2” value at recombinant PRL-2 (setting [1]) came out at 84%.
The corresponding values for `COc1cc2c(cc1OC)CN(CCc1ccc(NC(=O)c3cccc4c(=O)c5cccc(OC)c5[nH]c34)cc1)CC2` [Elacridar (GF120918)] are 106%, 100% and 104%.
Consider `CN1CCC[C@@H]1Cc1c[nH]c2ccc(CCS(=O)(=O)c3ccccc3)cc12` [Eletriptan HBr], for which the “% Phosphatase Activity (compared to DMSO) PRL-1” value at recombinant PRL-1 (setting [1]) was found to be 109%. Moreover, the “% Phosphatase Activity (compared to DMSO) PRL-3” value on recombinant PRL-3 (setting [1]) turned out to be 92%. The “% Phosphatase Activity (compared to DMSO) PRL-2” value on recombinant PRL-2 (setting [1]) is on record as 121%.
The like results for `CCCCCCCC(=O)N[C@H](CN1CCCC1)[C@H](O)c1ccc2c(c1)OCCO2.O=C(O)C(O)C(O)C(=O)O` [Eliglustat Tartrate] were, in that order, 96%, 96% and 91%.
The like results for `O=c1oc2c(O)c(O)cc3c(=O)oc4c(O)c(O)cc1c4c23` [Ellagic acid] were, in that order, 98%, 68% and 89%.
The corresponding values for `CC1=NN(c2ccc(C)c(C)c2)C(=O)/C1=N\Nc1cccc(-c2cccc(C(=O)O)c2)c1O` [Eltrombopag Olamine] are 56%, 35% and 66%.
Consider `CC1=NN(c2ccc(C)c(C)c2)C(=O)/C1=N\Nc1cccc(-c2cccc(C(=O)O)c2)c1O` [Eltromobag Olamine, reference compound], for which the IC50 at recombinant PRL-1 ([…] protein) is 61 ± 15 µM; at recombinant PRL-3 ([…] protein) it was 27 ± 4 µM; on recombinant PRL-2 ([…] protein), 166 ± 22 µM.
Consider `CC1=NN(c2ccc(C)c(C)c2)C(=O)/C1=N\Nc1cccc(-c2cccc(C(=O)O)c2)c1O` [Eltromobag, reference compound], for which the IC50 on recombinant PRL-1 (2.5 µM protein) is 56 ± 10 µM; on recombinant PRL-3 (2.5 µM protein) it was 26 ± 11 µM; on recombinant PRL-2 (2.5 µM protein), over 100 µM. Moreover, the “% Phosphatase Activity (compared to DMSO) PRL-1” value on recombinant PRL-1 (setting [2]) was 57%. Moreover, the “% Phosphatase Activity (compared to DMSO) PRL-3” value at recombinant PRL-3 (setting [2]) was determined as 66%. For the same compound, at recombinant PRL-2 (setting [2]), the “% Phosphatase Activity (compared to DMSO) PRL-2” value is 68%.
Turning to `COc1cc2c(cc1Cc1cccc(Cl)c1F)c(=O)c(C(=O)O)cn2[C@H](CO)C(C)C` [Elvitegravir (GS-9137, JTK-303)], at recombinant PRL-1 (setting [1]), the “% Phosphatase Activity (compared to DMSO) PRL-1” value was 82%. Further, at recombinant PRL-3 (setting [1]), the “% Phosphatase Activity (compared to DMSO) PRL-3” value worked out at 81%. At recombinant PRL-2 (setting [1]), the “% Phosphatase Activity (compared to DMSO) PRL-2” value was found to be 84%.
As for `CCCCCCCCCCCC1=C(O)C(=O)C=C(O)C1=O` [Embelin, reference compound], the IC50 at recombinant PRL-1 (2.5 µM protein) is 114 ± 16 µM; at recombinant PRL-3 (2.5 µM protein) it was 52 ± 9 µM; on recombinant PRL-2 (2.5 µM protein), 124 ± 60 µM. In addition, the “% Phosphatase Activity (compared to DMSO) PRL-1” value on recombinant PRL-1 (setting [1]) is reported as 40%. Further, on recombinant PRL-3 (setting [1]), the “% Phosphatase Activity (compared to DMSO) PRL-3” value is 28%. Also, the “% Phosphatase Activity (compared to DMSO) PRL-2” value at recombinant PRL-2 (setting [1]) amounted to 58%.
Turning to `OC[C@H]1O[C@@H](c2ccc(Cl)c(Cc3ccc(O[C@H]4CCOC4)cc3)c2)[C@H](O)[C@@H](O)[C@@H]1O` [Empagliflozin (BI 10773)], on recombinant PRL-1 (setting [1]), the “% Phosphatase Activity (compared to DMSO) PRL-1” value amounted to 109%. Further, on recombinant PRL-3 (setting [1]), the “% Phosphatase Activity (compared to DMSO) PRL-3” value is recorded as 97%. Moreover, the “% Phosphatase Activity (compared to DMSO) PRL-2” value on recombinant PRL-2 (setting [1]) came to 93%.
The like results for `C[C@H](NC(=O)C(=O)Nc1ccccc1C(C)(C)C)C(=O)N[C@@H](CC(=O)O)C(=O)COc1c(F)c(F)cc(F)c1F` [Emricasan] were, in that order, 95%, 95% and 72%.
`Nc1nc(=O)n([C@@H]2CS[C@H](CO)O2)cc1F` [Emtricitabine]: the “% Phosphatase Activity (compared to DMSO) PRL-1” value on recombinant PRL-1 turned out to be 104%. Further, the “% Phosphatase Activity (compared to DMSO) PRL-3” value at recombinant PRL-3 came out at 75%. For the same compound, the “% Phosphatase Activity (compared to DMSO) PRL-2” value on recombinant PRL-2 was found to be 97%.
As to `CCOC(=O)[C@H](CCc1ccccc1)N[C@@H](C)C(=O)N1CCC[C@H]1C(=O)O` [Enalapril Maleate], the “% Phosphatase Activity (compared to DMSO) PRL-1” value on recombinant PRL-1 (setting [1]) came to 83%. Moreover, the “% Phosphatase Activity (compared to DMSO) PRL-3” value at recombinant PRL-3 (setting [1]) worked out at 93%. Moreover, the “% Phosphatase Activity (compared to DMSO) PRL-2” value on recombinant PRL-2 (setting [1]) is listed as 92%.
The like results for `C[C@H](N[C@@H](CCc1ccccc1)C(=O)O)C(=O)N1CCC[C@H]1C(=O)O.O.O` [Enalaprilat Dihydrate] were, in that order, 102%, 78% and 102%.
As to `CCN1CCN(c2cc3c(cc2F)c(=O)c(C(=O)O)cn3C2CC2)CC1` [Enrofloxacin], the “% Phosphatase Activity (compared to DMSO) PRL-1” value at recombinant PRL-1 (setting [1]) was found to be 152%. Moreover, the “% Phosphatase Activity (compared to DMSO) PRL-3” value at recombinant PRL-3 (setting [1]) was 118%. On recombinant PRL-2 (setting [1]), the “% Phosphatase Activity (compared to DMSO) PRL-2” value stood at 176%.
The corresponding values for `CCN(CC)C(=O)/C(C#N)=C/c1cc(O)c(O)c([N+](=O)[O-])c1` [Entacapone] are 94%, 75% and 87%.
The like results for `C=C1[C@H](CO)[C@@H](O)C[C@@H]1n1cnc2c(=O)[nH]c(N)nc21` [Entecavir Hydrate] were, in that order, 102%, 71% and 92%.
The like results for `Nc1ccccc1NC(=O)c1ccc(CNC(=O)OCc2cccnc2)cc1` [Entinostat (MS-275)] were, in that order, 91%, 80% and 91%.
For `CN1CCN(c2ccc(C(=O)Nc3n[nH]c4ccc(Cc5cc(F)cc(F)c5)cc34)c(NC3CCOCC3)c2)CC1` [Entrectinib (RXDX-101)], the “% Phosphatase Activity (compared to DMSO) PRL-1” value at recombinant PRL-1 (setting [1]) is 344%. In addition, the “% Phosphatase Activity (compared to DMSO) PRL-3” value on recombinant PRL-3 (setting [1]) is recorded as 180%. On recombinant PRL-2 (setting [1]), the “% Phosphatase Activity (compared to DMSO) PRL-2” value is on record as 282%.
The like results for `CNC(=O)c1ccc(N2C(=S)N(c3ccc(C#N)c(C(F)(F)F)c3)C(=O)C2(C)C)cc1F` [Enzalutamide (MDV3100)] were, in that order, 90%, 71% and 89%.
The like results for `Cn1cc(C2=C(c3cn(C4CCN(Cc5ccccn5)CC4)c4ccccc34)C(=O)NC2=O)c2ccccc21` [Enzastaurin (LY317615)] were, in that order, 82%, 82% and 76%.
For `NS(=O)(=O)NCCNc1nonc1/C(=N/O)Nc1ccc(F)c(Br)c1` [Epacadostat (INCB024360)], the “% Phosphatase Activity (compared to DMSO) PRL-1” value at recombinant PRL-1 (setting [1]) is 111%. Also, at recombinant PRL-3 (setting [1]), the “% Phosphatase Activity (compared to DMSO) PRL-3” value was determined as 95%. Besides, the “% Phosphatase Activity (compared to DMSO) PRL-2” value on recombinant PRL-2 (setting [1]) is recorded as 98%.
The corresponding values for `CC(/C=C1\SC(=S)N(CC(=O)O)C1=O)=C\c1ccccc1` [Epalrestat] are 40%, 74% and 17%.
With `NC1=NCC2c3ccccc3Cc3ccccc3N12` (stereo not drawn) [Epinastine HCl], the “% Phosphatase Activity (compared to DMSO) PRL-1” value on recombinant PRL-1 was found to be 96%. The “% Phosphatase Activity (compared to DMSO) PRL-3” value at recombinant PRL-3 was determined as 80%. The “% Phosphatase Activity (compared to DMSO) PRL-2” value on recombinant PRL-2 turned out to be 109%.
For `CNC[C@H](O)c1ccc(O)c(O)c1` [Epinephrine Bitartrate], on recombinant PRL-1, the “% Phosphatase Activity (compared to DMSO) PRL-1” value came out at 116%. Besides, the “% Phosphatase Activity (compared to DMSO) PRL-3” value on recombinant PRL-3 came to 82%. Besides, the “% Phosphatase Activity (compared to DMSO) PRL-2” value on recombinant PRL-2 was 90%.
The like results for `CNC[C@H](O)c1ccc(O)c(O)c1` [Epinephrine HCl] were, in that order, 98%, 90% and 132%.

The record behind these values is article PMC8119466, “A screen of FDA-approved drugs identifies inhibitors of protein tyrosine phosphatase 4A3 (PTP4A3 or PRL-3)” (Scientific Reports, 2021).
